Data: patent US9409906B2, “Pyrimido[4,5-B]indole derivatives and use thereof in the expansion of hematopoietic stem cells” (UNIVERSITÉ DE MONTRÉAL, priority 2012, dated 2016)

Test system: CD34+ cells from mobilized PB
Assay: Long term 10-day ex vivo culture of CD34+ cells from mobilized PB
Assay type: cell-based, human
Experimental: The following biological assays were used to assess the effect of the compounds of the invention on hematopoietic stem cell expansion. Culture medium: The culture medium used consisted of serum-free medium supplemented with the following recombinant cytokines: interleukin-6, thrombopoietin, Flt-3 ligand, and stem cell factor, each at a final concentration of 100 ng/ml, in the presence of vehicle (DMSO), positive control (SR1), or compound of the invention or a combination of compounds. Cell Culture: CD34+ cell purity of initial harvests was higher than 90%, as determined by flow cytometry. The CD34+CD45RA− subpopulation reached purity levels higher than 70%. Cells were plated at 40,000 cells/ml and incubated for 7 to 12-days at 37° C. in 5% CO2. For long term cultures, 200,000 CD34+ cells/ml from mobilized PB were plated with serum free media supplemented with interleukin-6, thrombopoietin, Flt3 ligand, and stem cell factor, each at a final concentration of 100 ng/ml, in the presence of vehicle (DMSO), positive control, or a compound of the invention at 500 nM. After a 10-day ex vivo culture Compound 1 (Table 1) promoted more than 7-fold expansion of MNCs, more than 5-fold increase in CD34+ cells over input values (day 0), and almost 4-fold increase over the values determined for vehicle. After 10 days of ex vivo culture, Compound 1-treated cells retained a high level of CD34 expression (65.8±5.5%) compared to cells cultured with vehicle (DMSO) (22.8±0.9%). Moreover, only Compound 1-treated cells retained the highest expression of CD34+CD45RA− population (24.8±0.9%) compared to that of vehicle (4.7±0.4%). The numbers of CD34+CD45RA− cultured with Compound 1 increased by almost 3-fold compared to that of vehicle and 7-fold more than that of input. Finally, the compounds of the invention were assayed in a dose-response format (concentrations ranging from 1 nM to 5000 nM) to determine the effective concentration that produced a 50% increase in the number of CD34+CD45RA− cells compared to vehicle condition.

SMILES: COC(=O)c1ccc2c(c1)[nH]c1ncnc(NCCCN3CCCCC3)c12 [Compound 1, Methyl 4-((3-(piperidin-1-yl)propyl)amino)-9H-pyrimido[4,5-b]indole-7-carboxylate]
- expansion of MNCs (10-day ex vivo culture, 500 nM): more than 7 fold
- increase in CD34+ cells over input values (day 0) (10-day ex vivo culture, 500 nM): more than 5 fold
- increase in CD34+ cells over the values determined for vehicle (10-day ex vivo culture, 500 nM): ~4 fold
- numbers of CD34+CD45RA− compared to input (10-day ex vivo culture, 500 nM): 7 fold
- numbers of CD34+CD45RA− compared to vehicle (10-day ex vivo culture, 500 nM): ~3 fold
- expression of CD34+CD45RA− population (after 10 days of ex vivo culture, vehicle 4.7±0.4%): 24.8±0.9%
- level of CD34 expression (after 10 days of ex vivo culture, vehicle 22.8±0.9%): 65.8±5.5%
